Several values for one entry are separate records, joined by “and”; a condition that tells them apart may be missing. Identical values can stand only once. Toxic doses and inconclusive results are not listed. The calls were made as follows: active = survival T/C of 150% or more; inactive = T/C below 125% in these data.
Test system: P388 leukemia ip, CD2F1 mice, survival T/C
Assay: NCI In Vivo Anticancer Drug Screen. Data for tumor model P388 Leukemia (intraperitoneal) in CD2F1 (CDF1) mice
Conditions: endpoint: median survival time, higher = longer survival
Method in brief: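 Mice carrying the transplanted tumor received test compound or vehicle. Survival was recorded in each group, and the value is the treated-group measurement divided by that of the vehicle-treated control group.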

[1] = dose: 50.0 mg/kg/injection, schedule: Q01DX005 (ip), vehicle: saline with Tween-80
[2] = dose: 100.0 mg/kg/injection, schedule: Q01DX005 (ip), vehicle: saline with Tween-80
[3] = dose: 200.0 mg/kg/injection, schedule: Q01DX005 (ip), vehicle: saline with Tween-80
[4] = dose: 50.0 mg/kg/injection, schedule: Q01DX009 (ip), vehicle: saline with Tween-80
[5] = dose: 100.0 mg/kg/injection, schedule: Q01DX009 (ip), vehicle: saline with Tween-80
[6] = dose: 200.0 mg/kg/injection, schedule: Q01DX009 (ip), vehicle: saline with Tween-80
[7] = dose: 50.0 mg/kg/injection, schedule: Q01DX005 (ip), vehicle: Klucel (hydroxypropylcellulose) (HPC)
[8] = dose: 50.0 mg/kg/injection, schedule: Q01DX009 (ip), vehicle: Klucel (hydroxypropylcellulose) (HPC)
[9] = dose: 100.0 mg/kg/injection, schedule: Q01DX009 (ip), vehicle: Klucel (hydroxypropylcellulose) (HPC)
[10] = dose: 200.0 mg/kg/injection, schedule: Q01DX009 (ip), vehicle: Klucel (hydroxypropylcellulose) (HPC)
[11] = dose: 100.0 mg/kg/injection, schedule: Q01DX005 (ip), vehicle: Klucel (hydroxypropylcellulose) (HPC)
[12] = dose: 200.0 mg/kg/injection, schedule: Q01DX005 (ip), vehicle: Klucel (hydroxypropylcellulose) (HPC)
[13] = dose: 12.5 mg/kg/injection, schedule: Q01DX009 (ip), vehicle: saline with Tween-80
[14] = dose: 60.0 mg/kg/injection, schedule: Q01DX005 (ip), vehicle: Klucel (hydroxypropylcellulose) (HPC)
[15] = dose: 120.0 mg/kg/injection, schedule: Q01DX005 (ip), vehicle: Klucel (hydroxypropylcellulose) (HPC)
[16] = dose: 240.0 mg/kg/injection, schedule: Q01DX005 (ip), vehicle: Klucel (hydroxypropylcellulose) (HPC)
[17] = dose: 100.0 mg/kg/injection, schedule: Q01DX001 (ip), vehicle: saline with Tween-80
[18] = dose: 200.0 mg/kg/injection, schedule: Q01DX001 (ip), vehicle: saline with Tween-80
[19] = dose: 400.0 mg/kg/injection, schedule: Q01DX001 (ip), vehicle: saline with Tween-80
[20] = dose: 100.0 mg/kg/injection, schedule: Q01DX001 (ip), vehicle: Klucel (hydroxypropylcellulose) (HPC)
[21] = dose: 200.0 mg/kg/injection, schedule: Q01DX001 (ip), vehicle: Klucel (hydroxypropylcellulose) (HPC)
[22] = dose: 400.0 mg/kg/injection, schedule: Q01DX001 (ip), vehicle: Klucel (hydroxypropylcellulose) (HPC)

Measured: T/C

O=C(O)c1ccccc1-c1c2cc(Br)c(=O)cc-2oc2[c]([Hg])c(O)c(Br)cc12
inactive: dose: 6.25 mg/kg/injection, schedule: Q01DX005 (ip), vehicle: saline 106 % of control | dose: 12.5 mg/kg/injection, schedule: Q01DX005 (ip), vehicle: saline 109 % of control | dose: 25.0 mg/kg/injection, schedule: Q01DX005 (ip), vehicle: saline 107 % of control

NCCNc1ncnc2ccc(Cl)cc12
inactive: [1] 97 % of control | [2] 93 % of control | [3] 92 % of control

COc1ccc(OC)c(NC(=O)N2CCCC2)c1
inactive: [4] 100 % of control | [5] 96 % of control | [6] 96 % of control

COc1ccc2c3c([nH]c2c1[N+](=O)[O-])C(C)NCC3 (centres undefined)
inactive: dose: 12.5 mg/kg/injection, schedule: Q01DX005 (ip), vehicle: Klucel (hydroxypropylcellulose) (HPC) 101 % of control | dose: 25.0 mg/kg/injection, schedule: Q01DX005 (ip), vehicle: Klucel (hydroxypropylcellulose) (HPC) 92 % of control | [7] 92 % of control

O=C(CSC(=S)N1CCCCC1)c1ccc([N+](=O)[O-])cc1
inactive: dose: 12.5 mg/kg/injection, schedule: Q01DX009 (ip), vehicle: distilled water + Tween-80 98 % of control | dose: 25.0 mg/kg/injection, schedule: Q01DX009 (ip), vehicle: distilled water + Tween-80 96 % of control | dose: 50.0 mg/kg/injection, schedule: Q01DX009 (ip), vehicle: distilled water + Tween-80 90 % of control | dose: 100.0 mg/kg/injection, schedule: Q01DX009 (ip), vehicle: distilled water + Tween-80 90 % of control | dose: 200.0 mg/kg/injection, schedule: Q01DX009 (ip), vehicle: distilled water + Tween-80 89 % of control

C/C=C/C=c1/[nH]c(=O)/c(=C\c2ccccc2)[nH]c1=O
inactive: [8] 104 % of control | [9] 104 % of control | [10] 103 % of control

Nc1ccc(Nc2nc(Cl)nc(Nc3ccc(N)cc3)n2)cc1
inactive: [7] 98 % of control | [11] 90 % of control | [12] 90 % of control

Cc1ccc(-c2cc(N)n(-c3nnc(-c4ccccc4)c(-c4ccccc4)n3)n2)cc1
inactive: [1] 105 % of control | [2] 105 % of control | [3] 93 % of control

C/C=C(\C#N)SCC
inactive: [4] 103 % of control | [5] 114 % of control | [6] 109 % of control

Cc1ccccc1NC(=O)c1ccc([N+](=O)[O-])cc1
inactive: [5] 100 % of control | [6] 104 % of control | dose: 400.0 mg/kg/injection, schedule: Q01DX009 (ip), vehicle: saline with Tween-80 90 % of control

COc1ccc(CN(CCc2ccc(O)cc2)C(=O)C(F)(F)F)cc1O
inactive: dose: 6.25 mg/kg/injection, schedule: Q01DX009 (ip), vehicle: saline with Tween-80 99 % of control | [13] 110 % of control | dose: 25.0 mg/kg/injection, schedule: Q01DX009 (ip), vehicle: saline with Tween-80 107 % of control | [4] 100 % of control

CNC(=O)NC(c1ccc(F)cc1)c1cc2c(cc1O)OCO2 (centres undefined)
inactive: [14] 96 % of control | [15] 96 % of control | [16] 87 % of control

CNC(=O)Oc1ccc(Nc2ccccc2)cc1
inactive: [14] 105 % of control | [15] 99 % of control | [16] 97 % of control

CC(=O)[O][Hg][O]C(C)=O
inactive: dose: 1.25 mg/kg/injection, schedule: Q01DX009 (ip), vehicle: saline with Tween-80 95 % of control

CNC(=O)SC1=NS(=O)(=O)c2ccc(Cl)cc2N1
inactive: [14] 110 % of control | [15] 107 % of control

Cc1cc2c(cc1C)C(=O)c1c(O)c3c(c(O)c1C2=O)C[C@@](O)(C(=O)CO)C[C@@H]3OC1CC(N)C(O)C(C)O1 (some centres undefined)
inactive: dose: 0.39 mg/kg/injection, schedule: Q04DX003 (ip), vehicle: water 115 % of control | dose: 0.78 mg/kg/injection, schedule: Q04DX003 (ip), vehicle: water 115 % of control | dose: 1.56 mg/kg/injection, schedule: Q04DX003 (ip), vehicle: water 110 % of control | dose: 25.0 mg/kg/injection, schedule: Q04DX003 (ip), vehicle: water 100 % of control
active: dose: 3.13 mg/kg/injection, schedule: Q04DX003 (ip), vehicle: water 151 % of control and 157 % of control | dose: 6.25 mg/kg/injection, schedule: Q04DX003 (ip), vehicle: water 190 % of control

COC(=O)c1c(-c2cc(OC)c(OC)cc2[N+](=O)[O-])c(C=O)n(C)c1C
inactive: [17] 100 % of control | [18] 99 % of control | [19] 91 % of control

CCCCCCCCN1CCCN(/N=C/c2c3c(O)c4c(O)c(C)c5c(c4c2O)C(=O)C(C)(O/C=C/C(OC)C(C)C(OC(C)=O)C(C)C(O)C(C)C(O)C(C)/C=C/C=C(C)C(=O)N3)O5)CC1 (centres undefined)
inactive: [4] 97 % of control | [5] 100 % of control | [6] 91 % of control

CN(C)c1c(-c2ccccc2)nnc(-c2ccccc2)c1-c1ccccc1
inactive: [20] 103 % of control | [21] 100 % of control | [22] 101 % of control

CSC(=O)/N=C(\N)NC(=O)c1ccccc1
inactive: [7] 95 % of control | [11] 94 % of control | [12] 92 % of control

c1ccc(-c2nc(-c3ccc4c(c3)OCO4)[nH]c2-c2ccccc2)cc1
inactive: [8] 97 % of control | [9] 114 % of control | [10] 112 % of control

N#CCc1c(Cl)n(-c2ccccc2)c2ccccc12
inactive: [20] 101 % of control | [21] 93 % of control | [22] 88 % of control

O=[N+]([O-])c1cc(S(=O)(=O)O)c2cccnc2c1O
inactive: dose: 100.0 mg/kg/injection, schedule: Q04DX003 (ip), vehicle: saline 86 % of control | dose: 200.0 mg/kg/injection, schedule: Q04DX003 (ip), vehicle: saline 89 % of control | dose: 400.0 mg/kg/injection, schedule: Q04DX003 (ip), vehicle: saline 88 % of control

COc1ccc(/C=C/C(CCN(C)C)=N/NC(=S)Nc2ccc(Br)cc2)cc1
inactive: [17] 101 % of control | [18] 96 % of control | [19] 105 % of control

S=C(Nc1ccccc1)P(C(=S)Nc1ccccc1)C1CCCCC1
inactive: [7] 108 % of control | [11] 101 % of control | [12] 99 % of control

CN(C)c1ccc2c(Cl)cc(Cl)nc2c1
inactive: dose: 12.5 mg/kg/injection, schedule: Q01DX009 (ip), vehicle: Klucel (hydroxypropylcellulose) (HPC) 109 % of control | dose: 25.0 mg/kg/injection, schedule: Q01DX009 (ip), vehicle: Klucel (hydroxypropylcellulose) (HPC) 109 % of control | [8] 107 % of control | [9] 106 % of control | [10] 103 % of control | dose: 400.0 mg/kg/injection, schedule: Q01DX009 (ip), vehicle: Klucel (hydroxypropylcellulose) (HPC) 104 % of control

CN(C)CCCN1c2ccccc2Sc2ccc(C(F)(F)F)cc21
inactive: [13] 123 % of control

CC12N=C1CCCCCCCCCCCC2=O (centres undefined)
inactive: dose: 60.0 mg/kg/injection, schedule: Q01DX005 (ip), vehicle: saline with Tween-80 101 % of control | dose: 120.0 mg/kg/injection, schedule: Q01DX005 (ip), vehicle: saline with Tween-80 100 % of control | dose: 240.0 mg/kg/injection, schedule: Q01DX005 (ip), vehicle: saline with Tween-80 108 % of control

N#C/C(=C\c1c[nH]c2ccccc12)C(N)=O
inactive: dose: 100.0 mg/kg/injection, schedule: Q04DX003 (ip), vehicle: saline with Tween-80 100 % of control | dose: 200.0 mg/kg/injection, schedule: Q04DX003 (ip), vehicle: saline with Tween-80 100 % of control | dose: 400.0 mg/kg/injection, schedule: Q04DX003 (ip), vehicle: saline with Tween-80 100 % of control

COCNC(=O)N=C1N(COC)COCN1COC
inactive: [17] 109 % of control | [18] 106 % of control | [19] 100 % of control
